# Results taken from patent US8741949B2, “Inhibitors of carnitin-palmitoyl-tranferase-1 for the treatment and prevention of disorders caused by delipidation of neural tissue” (Meta-IQ ApS, priority 2008, dated 2014).
# Key:
# Type in all cases: in vivo, rat
# Male Wistar rats [1] = assay: Y-maze short term memory test (spontaneous alternation), MK-801 induced memory loss
# Experimental: (§1) Male Wistar rats were purchased from Taconic, Denmark. Animal weight was close to 300 g. The animals were singly housed. Food and water was available ad libitum.
# Spontaneous alternation. A Y-maze was used to assess (without food deprivation or other aversive procedures) the normal navigation behaviors of rodents. All arm entries are sequentially scored so that the total number of arm entries, as well as the sequence of entries, are recorded. Data are analyzed to determine the number of arm entries without repetition.
# On the day of testing, the rats are given subcutaneous injection of either vehicle (n=9), 0.1 mg/kg MK-801 (n=8) or 0.1 mg/kg MK-801 (also known as Dizocilpine) and the CPT-1 inhibitor Etomoxir 1 mg/kg (1 mg/ml etomoxir ester dilution in olive oil, n=5) 1 hour before the testing (to avoid the MK-801 induced hyperactivity).
# Male Wistar rats [2] = assay: Passive avoidance test (long term memory), MK-801 induced memory loss; details: retention test 24 h later
# Source text: as §1
# In order to test long term memory, a passive avoidance apparatus was used. The passive avoidance apparatus consist of 2 compartments: a white compartment and a black compartment, which are separated by guillotine doors. There is a lamp hanging 10 cm above the white compartment and there is a lid covering the black compartment. The black compartment contains a stainless steel grid floor.
# The test was performed in the lab where the rats normally live, and all the rats were present in the room all the time during the experiment. The apparatus was placed a little bit above the floor on 2 cages. The electrical current strength was adjusted to 0.36 mA and the duration was 5 sec. […] All the rats are weighted one day before the experiment, the concentration of MK-801 per mean body weight is calculated and the dilutions are prepared
# The rats are given subcutaneous injection of either vehicle (n=4), 0.1 mg/kg MK-801 (n=8) or 0.1 mg/kg MK-801 and etomoxir 1 mg/kg (1 mg/ml etomoxir ester dilution in olive oil, n=10) 1 hour before the training (to avoid the MK-801 induced hyperactivity). […] After 20 sec the doors are lifted and the time to enter the black compartment is measured. […]
# Male Wistar rats [3] = assay: Chronic mild stress (CMS) model of depression, sucrose consumption test; details: 4 mg/kg etomoxir in oil i.p. daily
# Source text: For a prolonged period rats are submitted to a succession of mild stressors. Consequently rats enter a depression-like state (anhedoina), however, upon concomitant treatment with antidepressants a fraction of rats recovers over time (Jayatissa et al., 2006). Time point of onset of antidepressant action correlates well to therapeutic action in the clinic and also drug efficacy, measured as a reduction in number of rats resistant to drug treatment, is addressed in the model. Male Wistar rats were purchased from Taconic, Denmark. Animal weight was close to 200 g when adaptation for sucrose consumption was initiated, and approximately 350 g at the start of stress regime. The animals were singly housed, except when grouping was applied as a stress parameter. Food and water was available ad libitum except when food or/and water deprivation was applied as a stress parameter. The standard 12-h light/dark cycle was only changed in course of stress regime. The animals were first trained to consume a palatable sucrose solution (1.5%). The training lasted 5 weeks. In this period the sucrose test was made twice a week during the first 3 weeks and once a week during the last two weeks. […] Percentage well being is calculated as follows: Test=Average Sucrose consumption animals in test group Control=Average Sucrose used animal control group Percentage well being=(Test/control)×100%
SMILES,"Y-maze scores of the animals with nearly perfect memory (Male Wistar rats [1]; Etomoxir 1 mg/kg s.c. with 0.1 mg/kg MK-801, 1 hour before testing)","animals with nearly perfect memory (Male Wistar rats [1]; Etomoxir 1 mg/kg s.c. with 0.1 mg/kg MK-801, 1 hour before testing, n=5)","effect on the induced loss of short term memory (Male Wistar rats [1]; one subcutaneous injection, Etomoxir 1 mg/kg with 0.1 mg/kg MK-801, 1 hour before testing, FIG. 2)","animals with restored long term memory (Male Wistar rats [2]; one subcutaneous injection, etomoxir 1 mg/kg with 0.1 mg/kg MK-801, 1 hour before training, n=10, FIG. 3) [%]","animals responding to the treatment (at least 90% of pre-stress sucrose consumption) (Male Wistar rats [3]; stressed rats n=20, FIG. 6)","time of treatment until animals responded like normal non-depressed animals (percentage well being, sucrose consumption) (Male Wistar rats [3]; stressed rats, earliest time point measured, FIG. 5) [week]","highest Y-maze score in the group (Male Wistar rats [1]; 0.1 mg/kg MK-801 + vehicle s.c., 1 hour before testing, n=8) [%]","animals with measurable long term memory (Male Wistar rats [2]; 0.1 mg/kg MK-801 s.c. 1 hour before training, n=8)"
"CCOC(=O)C1(CCCCCCOc2ccc(Cl)cc2)CO1 (centres unmarked) [Etomoxir, 2-(6-(4-chlorophenoxy)hexyl)oxirane-2-carboxylic acid ethyl ester]",92-100%,Sixty,restore the loss of short term memory,40,about 70%,≤ 1,,
C[C@]12N[C@H](Cc3ccccc31)c1ccccc12 [MK-801],,,,,,,66,None
